Key:
Staphylococcus aureus = test: Antibacterial activity against Staphylococcus aureus NCTC 7447 at 1 mg/disk after 24 hr by paper disk diffusion method; format: functional
[1] = system: Radical scavenging activity; test: Antioxidant activity assessed as DPPH free radical scavenging activity after 30 min; format: functional

| Compound | diameter of the inhibition zone (DIZ) (Staphylococcus aureus) | IC50 [1] | inhibition zone (IZ) (Staphylococcus aureus) |
| --- | --- | --- | --- |
| O=C(/C=C/c1ccc([N+](=O)[O-])cc1)c1c(O)c2ccccc2oc1=O | 16 mm | 3210 nM |  |
| Cc1ccc(/C=C/C(=O)c2c(O)c3ccccc3oc2=O)cc1 | 13 mm | 2070 nM |  |
| O=C(/C=C/c1ccc(Br)cc1)c1c(O)c2ccccc2oc1=O | 9 mm | 2250 nM |  |
| O=C(/C=C/c1cccc2ccccc12)c1c(O)c2ccccc2oc1=O | 8 mm | 2390 nM |  |
| O=c1oc2ccccc2c2c1cnn2-c1ccccc1 | 19 mm |  |  |
| O=C(/C=C/c1ccc(F)cc1)c1c(O)c2ccccc2oc1=O | 13 mm | 2230 nM |  |
| O=C(/C=C/c1ccccc1)c1c(O)c2ccccc2oc1=O | 10 mm | 2150 nM |  |
| COc1ccc(/C=C/C(=O)c2c(O)c3ccccc3oc2=O)cc1 | 14 mm | 2810 nM |  |
| Cn1ncc2c(=O)oc3ccccc3c21 | 17 mm |  |  |
| COc1cc(/C=C/C(=O)c2c(O)c3ccccc3oc2=O)cc(OC)c1OC | 11 mm | 2290 nM |  |
| O=c1oc2ccccc2c2[nH]ncc12 | 14 mm |  |  |
| CN(C)c1ccc(/C=C/C(=O)c2c(O)c3ccccc3oc2=O)cc1 | 11 mm | 2390 nM |  |
| GENTAMICIN |  |  | 15 mm |
